US20250346634A1, “CYCLIC PEPTIDES FOR TARGETING EPIDERMAL GROWTH FACTOR RECEPTOR AND MUTATIONS THEREOF FOR DRUG DELIVERY” (priority 2022, published 2025)
Where two headings read alike, the source gives them in different places. Bridge positions count the residues as written; N and C are the ends. Square brackets hold non-standard residues; d marks the D form. Peptide text beside a SMILES is read from it. * marks the point of attachment. ξ: configuration not given here. Camptothecin(20S-OCO) = CC[C@@]1(OC(=O)*)C(=O)OCc2c1cc1n(c2=O)Cc2cc3ccccc3nc2-1; FITC = O=C1OC2(c3ccc(O)cc3Oc3cc(O)ccc32)c2ccc(NC(=S)*)cc21; ξThr(3R) = C[C@@H](O)C(N)C(=O)O; Abu = CC[C@H](N)C(=O)O; GABA = NCCCC(=O)O

What was measured:
[1] = system: H1299 cells; assay: XTT cytotoxicity assay on H1299 cells; assay type: cell-based
Method: (§1) Cell growth in the presence of PDCs was measured by a commercial XTT assay kit (Cell Proliferation Kit, XTT based; Biological Industries, Israel). The cells (10^4 cells/well) were seeded in 96 well plates and incubated overnight in complete growth medium. The cells were washed and then cultured in 100 μl of new medium containing various concentrations of drug or peptides, for 24 h, 48 h, and 72 h. The XTT solution was added to each well and the plate was further incubated 2-3 h at 37° C. The optical density in the wells was measured at both 480 nm and 680 nm using a TECAN Infinite M200 ELISA reader. All the tests were done in triplicates, and each experiment was repeated three times.
(§2) The cytotoxicity of the Peptide-Drug conjugates (PDCs) was tested in a range of concentrations (0.5-50 μM) against H1299 and DKMG cells using two protocols. In the first protocol, cells were pre-incubated with P6, P9, P6-CPT, and P9-CPT for 6 hours, the medium was removed, and a fresh, drug-free complete medium was added for additional 24 h (designated as 6h24h) or 48 h (6h48h). In the second protocol, cells were exposed continuously to PDCs for 24 h, 48 h, and 72 hours.

[2] = system: DKMG cells; assay: XTT cytotoxicity assay on DKMG cells; assay type: cell-based
Method: as §1, §2

[3] = system: H1299, H1975 and DKMG cells; assay: Phage display biopanning with NGS, selection of EGFR-specific peptides; assay type: cell-based; conditions: 3 rounds of biopanning, K562-derived sequences excluded
Method: A heptapeptide phage display library (Ph.D.-C7C Phage Display Library Kit, New England Biolabs, USA) was used for the in vitro biopanning experiments. All cell lines were individually incubated with phages from the stock library. […] Adherent cells (H1299, […] and DKMG) were plated at a density of 10^5 cells/ml in a 6-well plate. When the culture reached 80% confluence, the first well was incubated with phage library (10^11 pfu/10 μl) for 1 h at 37° C. with gentle stirring. The medium containing unbound phage was collected and transferred to the second, similar well and incubated again. The procedure was repeated with the third well. Cells in the third wells were washed four times with 0.5% Tween-20 in PBS. Then, 0.5 ml of elution buffer (0.2 M glycine-HCl, pH 2.2) was added and incubated for 10 min at 4° C.; the pH was neutralized by addition of 75 μl of 1 M Tris-HCl buffer, pH 9.0. The supernatant containing cell surface binding phage was collected. The cells were then lysed by incubation for 1 h at 4° C. with 2 ml of 30 mM Tris-HCl and 1 mM EDTA, pH 8.0. The medium was collected and centrifuged at 1,500 rpm for 5 min and the supernatant containing cell-internalized phage was transferred to a new tube. The internalized and surface-bound phages were amplified according to the manufacturer's instructions. An aliquot of the phages was retained for sequencing (see below) and the remainder was subjected to two additional rounds of biopanning. […]
Finally, two groups of peptides were constructed; the first included sequences that were present in all three EGFR+ve cell lines and included about 416 sequences; the second was divided into three subgroups, one for each cell line, wherein the subgroup for H1299 included some 1666 sequences, the subgroup for H1975 included some 10437 sequences, the subgroup for DKMG included some 981 sequences. From this list, top eleven S—S bridged cyclic peptides sequences were selected by their count in the sequencing data (the highest number of reads). […]

[4] = system: H1299, DKMG and K562 cells; assay: Flow cytometry binding of peptide-FITC conjugates; assay type: cell-based; conditions: 2.5 μM FITC-labeled peptide
Method: Cells with 80-90% confluence were incubated with 2.5 μM FITC-conjugated peptides in RPMI-5% FBS for 1 h at 37° C. Cells were scrapped from the culture flask and washed twice with 2 ml FCSB.
This concentration was chosen based on preliminary dose dependence study.

[5] = system: EGFR+ve cells (H1299, DKMG) versus K562 cells; assay: Flow cytometry internalization of peptide-FITC conjugates; assay type: cell-based; conditions: 2.5 μM FITC-labeled peptide
Source text: Analysis was done with FACS cell analyzer.

[6] = system: H1299 tumor (EGFR positive) versus K562 tumor (EGFR negative); assay: In vivo targeting in mice with dual H1299 and K562 xenografts; conditions: nude mice, tail vein, 100 μg
Method: Animal protocols were approved by the Institutional Animal Care and Use Committee at Ariel university Israel. Nude mice were injected with either H1299 cells in the right flank and with K562 cells in the left flank, so that each mouse bore either dual H1299 and K562 xenografts. When tumors reached, 100 mm^3 mice were injected via tail vein with 100 μg of FITC-labeled cyclic peptide, according to some embodiments of the present invention, and imaged using IVIS® SpectrumCT 8- and 24-hours post injection. Immediately afterwards, the mice were sacrificed for ex vivo imaging of organs.
Signal from the targeted tumor compared to other tissues was determined for each animal.

[7] = Stability of peptide-drug conjugates in complete growth medium (LC-MS); assay type: in vitro ADME; conditions: RPMI and DMEM complete growth medium, 37° C., read-out: half-life of degradation
Method: At each time point, 10 μl of sample was taken and mixed with 25 μl ACN/H2O (1:1, v.v.). The samples were centrifuged at 1,400 rpm for 15 min. Supernatants were collected, filtered and analyzed by liquid chromatography mass spectrometry (LC-MS).
The stability of P6-CPT and P9-CPT was measured in RPMI and DMEM complete growth medium at 37° C. for 0 h, 0.5 h, 3 h, 7 h, 24 h, 48, and 72 h. The degradation of the conjugates and the CPT release was analyzed by LC-MS. The stability of these conjugates and drug release rates were similar.

[8] = target: T1, epidermal growth factor receptor (EGFR), wild type (human, UniProt P00533 25-1210); assay: confocal microscopy, 25 uM FITC-peptide, 3 h, H1299 cells
T1 construct: whole, on cells; The target is inferred from tumour cell lines that overexpress EGFR, compared with EGFR-negative cells; No purified receptor was used; also called EGFRWT; EGFR WT

[9] = target: T2, EGFR variant III (EGFRvIII), on DKMG glioblastoma cells (human, UniProt P00533 25-1210); assay: flow cytometry, 2.5 uM FITC-peptide on DKMG cells (EGFR WT and EGFRvIII)
T2 construct: whole, on cells; DKMG cells express both wild type EGFR (92% of cells) and EGFRvIII (82%); All results on DKMG cells are written against this molecule; also called EGFR mutant; EGFRVIII DKMG

[10] = H1299, 24 h continuous exposure
[11] = H1299, 48 h continuous exposure
[12] = H1299, 72 h continuous exposure
[13] = H1299, 6 w 48 h (6 h pre-incubation, then 48 h drug-free medium)
[14] = H1299, first protocol (6 h pre-incubation), up to 48 h
[15] = H1299, second protocol, continuous exposure

With `CSCC[C@@H]1NC(=O)[C@H](C)NC(=O)[C@H](CC(N)=O)NC(=O)[C@H](C(C)C)NC(=O)[C@@H](N)CSSC[C@@H](C(N)=O)NC(=O)[C@H](Cc2ccc(O)cc2)NC(=O)[C@H](CO)NC(=O)[C@H](CCC(N)=O)NC1=O` [Peptide P9] (H-CVNAMQSYC-NH2; disulfide 1-9) the cytotoxicity [1] was “did not demonstrate cytotoxicity”, the IC50 [1, 10] was 22.3 ± 0.2 µM and the IC50 [1, 11] was 27.3 ± 1.7 µM. It also gave an IC50 [1, 12] of 22.5 µM, an IC50 ([2]; 24 h continuous exposure) of 16.4 ± 1.9 µM and an IC50 ([2]; 48 h continuous exposure) of 17.5 ± 2.3 µM. The IC50 ([2]; 72 h continuous exposure) was 17.5 ± 1.6 µM and the “Cell line (peptide specificity per cell line; source of the cells from which the peptide was identified)” value [3] was “DKMG”.

In the case of `CC(C)C[C@@H]1NC(=O)[C@H](Cc2c[nH]c3ccccc23)NC(=O)[C@H](CC(N)=O)NC(=O)[C@@H](N)CSSC[C@@H](C(N)=O)NC(=O)[C@H](CCC(=O)O)NC(=O)C([C@@H](C)O)NC(=O)[C@H](CCCNC(=N)N)NC(=O)[C@H](CO)NC1=O` (stereo partly drawn) [Peptide P10] (H-CNWLSR[ξThr(3R)]EC-NH2; disulfide 1-9), the “Cell line (peptide specificity per cell line; source of the cells from which the peptide was identified)” value [3] is reported as “DKMG”.

For `C[C@@H]1NC(=O)[C@@H](NC(=O)CCCNC(=S)Nc2ccc3c(c2)C(=O)OC32c3ccc(O)cc3Oc3cc(O)ccc32)CSSC[C@@H](C(N)=O)NC(=O)[C@H](CCCNC(=N)N)NC(=O)CNC(=O)[C@@H]2CCCN2C(=O)[C@H]([C@@H](C)O)NC(=O)[C@H](Cc2ccc(O)cc2)NC(=O)[C@H](CCC(N)=O)NC1=O` [FITC-labeled P11] ({FITC-GABA}-CAQYTPGRC-NH2; disulfide 1-9), the “binding (flow cytometry)” value [4] was “bind to H1299 and DKMG selectively but not to K562 cells”, the “internalization (flow cytometry)” value [5] was “internalized only into to EGFR+ve cells” and the “accumulation in other organs” value ([6]; ex vivo imaging of organs) was “No significant accumulation”. The tumor accumulation ([6]; imaging 8 and 24 hours post injection) was “accumulates in the H1299 tumor compared to the K562 tumor”.

With `C[C@@H]1NC(=O)[C@@H](N)CSSC[C@@H](C(N)=O)NC(=O)[C@H](CCCNC(=N)N)NC(=O)CNC(=O)[C@@H]2CCCN2C(=O)[C@H]([C@@H](C)O)NC(=O)[C@H](Cc2ccc(O)cc2)NC(=O)[C@H](CCC(N)=O)NC1=O` [Peptide P11] (H-CAQYTPGRC-NH2; disulfide 1-9) the “Cell line (peptide specificity per cell line; source of the cells from which the peptide was identified)” value [3] was “DKMG”.

For `CC[C@@H]1NC(=O)[C@@H](NC(=O)CCCNC(=O)O[C@]2(CC)C(=O)OCc3c2cc2n(c3=O)Cc3cc4ccccc4nc3-2)CSSC[C@@H](C(N)=O)NC(=O)[C@H](Cc2ccc(O)cc2)NC(=O)[C@H](CO)NC(=O)[C@H](CCC(N)=O)NC(=O)[C@H](CCSC)NC(=O)[C@H](C)NC(=O)[C@H](CC(N)=O)NC1=O` [Peptide P9-CPT] ({Camptothecin(20S-OCO)-GABA}-C[Abu]NAMQSYC-NH2; disulfide 1-9), the IC50 [1, 13] was 21.5 ± 2.1 µM, the IC50 [1, 10] was 8.4 ± 0.5 µM and the IC50 [1, 11] was 2.2 ± 0.3 µM. The IC50 [1, 12] was 1.2 ± 0.1 µM, the cytotoxicity [1, 14] was “exhibited cytotoxic effect after 48 h” and the cytotoxicity [1, 15] was “observed after 24 hours post exposure”. The IC50 ([2]; 6 w 48 h (6 h pre-incubation, then 48 h drug-free medium)) was 32 ± 1.6 µM, the IC50 ([2]; 24 h continuous exposure) was 6.76 µM and the IC50 ([2]; 48 h continuous exposure) was 2.7 ± 1 µM. The IC50 ([2]; 72 h continuous exposure) was 0.2 ± 0.1 µM, the cytotoxic effect ([2]; first protocol) was “noted after 48 hours” and the “IC50 concentration higher compared to the free CPT” value ([2]; first protocol, 48 hours) was 4 fold. The half-life [7] was 360 to 420 min.

`CC[C@H](C)[C@@H]1NC(=O)[C@H](Cc2ccc(O)cc2)NC(=O)[C@H](CO)NC(=O)CNC(=O)[C@@H]2CCCN2C(=O)[C@H](C(C)C)NC(=O)[C@H](Cc2cnc[nH]2)NC(=O)[C@@H](NC(=O)CCCNC(=O)O[C@]2(CC)C(=O)OCc3c2cc2n(c3=O)Cc3cc4ccccc4nc3-2)CSSC[C@@H](C(N)=O)NC1=O` [Peptide P6-CPT] ({Camptothecin(20S-OCO)-GABA}-CHVPGSYIC-NH2; disulfide 1-9) showed an IC50 [1, 13] of 32 µM, an IC50 [1, 10] of 14.5 µM and an IC50 [1, 11] of 5.5 µM. For the same molecule, the cytotoxicity [1, 14] was “exhibited cytotoxic effect after 48 h”, the cytotoxicity [1, 15] was “observed after 24 hours post exposure” and the half-life [7] was 360 to 420 min.

B1: FITC-labeled cyclic peptide P6, c(CHVPGSYIC) (peptide)
peptide: {FITC-GABA}-CHVPGSYIC-NH2
modifications: disulfide 1-9
SMILES: CC[C@H](C)[C@@H]1NC(=O)[C@H](Cc2ccc(O)cc2)NC(=O)[C@H](CO)NC(=O)CNC(=O)[C@@H]2CCCN2C(=O)[C@H](C(C)C)NC(=O)[C@H](Cc2c[nH]cn2)NC(=O)[C@@H](NC(=O)CCCNC(=S)Nc2ccc3c(c2)C(=O)OC32c3ccc(O)cc3Oc3cc(O)ccc32)CSSC[C@@H](C(N)=O)NC1=O
notes: also called FITC-P6; P6-FITC conjugate
B1: binds [8]; binds [9].
